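Values below derive from 48-hour exposures of cells grown in 96-well plates, with endpoints linearly interpolated between the two concentrations bracketing the appropriate inhibition level. GI50: concentration for 50% inhibition of growth. TGI denotes the concentration required for complete inhibition of growth.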

Among the test systems are NCI-H226 lung; KM12 colon; UO-31 renal; OVCAR-3 ovarian; 786-0 renal; NCI-H522 lung; SNB-75 CNS; CAKI-1 renal; T-47D breast; NCI-H460 lung.
Test in all cases: inhibition of tumour cell growth, NCI panel, 48 h

For `CCC(=O)Nc1nnc(Cc2ccc(OC)c(OC)c2)s1`, the GI50 in the assay with NCI-H226 lung, with KM12 colon, with UO-31 renal, in the assay on OVCAR-3 ovarian, in the assay on 786-0 renal and in the assay on NCI-H522 lung was over 100 µM throughout. Also, the GI50 was 44.2 µM in the assay with SNB-75 CNS, over 100 µM in the assay on CAKI-1 renal, over 100 µM with T-47D breast and over 100 µM in the assay on NCI-H460 lung. Besides, the TGI in the assay on NCI-H226 lung, with KM12 colon, in the assay on UO-31 renal, in the assay on OVCAR-3 ovarian, with 786-0 renal and with NCI-H522 lung was over 100 µM in each case. The TGI in the assay with SNB-75 CNS, in the assay on CAKI-1 renal, in the assay with T-47D breast and in the assay on NCI-H460 lung was over 100 µM each time.

Take `COc1cc(-c2ccc[nH]2)[nH]c1/C=C1\N=C(C)C(CC(=O)OCC(C)(C)C)=C1C`: the GI50 was 0.176 µM in the assay on NCI-H226 lung; 0.267 µM in the assay on KM12 colon; 0.173 µM with UO-31 renal; 0.254 µM in the assay with OVCAR-3 ovarian; 0.3 µM in the assay with 786-0 renal; 0.23 µM in the assay with NCI-H522 lung. The GI50 in the assay on SNB-75 CNS is 0.228 µM; with CAKI-1 renal, 0.263 µM; in the assay on T-47D breast, 0.157 µM; in the assay with NCI-H460 lung, 0.137 µM. Further, the TGI was 0.736 µM in the assay on NCI-H226 lung; 1.76 µM in the assay on KM12 colon; 0.382 µM in the assay on UO-31 renal; 1.15 µM in the assay with OVCAR-3 ovarian; 1.53 µM in the assay on 786-0 renal; 1.51 µM in the assay with NCI-H522 lung. For the same compound, the TGI in the assay on SNB-75 CNS stood at 0.903 µM; in the assay with CAKI-1 renal, 1.13 µM; in the assay with T-47D breast, 0.887 µM; with NCI-H460 lung it was 1.35 µM.

Consider `COC(=O)CC1=C(C)/C(=C/c2[nH]c(-c3ccc[nH]3)cc2OC)N=C1C`, for which the GI50 in the assay with NCI-H226 lung was 0.068 µM; in the assay with KM12 colon, 0.118 µM; with UO-31 renal, 0.187 µM; in the assay on OVCAR-3 ovarian, 0.204 µM; in the assay with 786-0 renal it was 0.191 µM; in the assay on NCI-H522 lung it was 0.215 µM. Besides, the GI50 in the assay with SNB-75 CNS is 0.137 µM; in the assay with CAKI-1 renal, 0.231 µM; in the assay on T-47D breast it was 0.255 µM; with NCI-H460 lung, 0.179 µM. The TGI in the assay on NCI-H226 lung amounted to 0.881 µM; in the assay with KM12 colon, 2.12 µM; with UO-31 renal it was 0.633 µM; in the assay on OVCAR-3 ovarian, 1.36 µM; with 786-0 renal, 0.723 µM; in the assay on NCI-H522 lung, 1.27 µM. In addition, the TGI with SNB-75 CNS came out at 2.16 µM; with CAKI-1 renal it was 2.34 µM; in the assay on T-47D breast it was 1.52 µM; in the assay on NCI-H460 lung, 2.2 µM.

For `Cc1ccc(-c2nc3sc(C)cn3c2/C=C2\C(=O)Nc3ccc(Cl)cc32)cc1`, the GI50 in the assay with NCI-H226 lung is 22.9 µM; in the assay on KM12 colon it was 20.6 µM; in the assay with UO-31 renal, 28.1 µM; in the assay with OVCAR-3 ovarian it was 24.6 µM; with 786-0 renal it was 10.3 µM; in the assay on NCI-H522 lung, 15.5 µM. The GI50 in the assay with SNB-75 CNS is 3.1 µM; with CAKI-1 renal, 17 µM; in the assay with T-47D breast it was 42.2 µM; in the assay on NCI-H460 lung, 15.7 µM. Also, the TGI is over 100 µM with NCI-H226 lung; 48.5 µM in the assay with KM12 colon; over 100 µM in the assay on UO-31 renal; 62.8 µM in the assay with OVCAR-3 ovarian; 22 µM in the assay with 786-0 renal; 30.1 µM in the assay on NCI-H522 lung. The TGI in the assay with SNB-75 CNS is 8.44 µM; with CAKI-1 renal it was 38.2 µM; in the assay on T-47D breast, over 100 µM; with NCI-H460 lung, 31.9 µM.

On to `C=CCSC(C)=O`, for which the TGI in the assay on NCI-H226 lung, in the assay with KM12 colon, with UO-31 renal, in the assay with OVCAR-3 ovarian, in the assay with 786-0 renal and in the assay on NCI-H522 lung was over 100 µM in each case. For the same compound, the TGI in the assay on SNB-75 CNS, with CAKI-1 renal, in the assay with T-47D breast and in the assay on NCI-H460 lung was over 100 µM in each case.

(Values after PubChem BioAssay (NCI).)
